What was measured:
[1] = Cytotoxicity against human PBMC assessed as inhibition of cell growth by trypan blue staining; type: cell-based; conditions: read-out: CCID50
[2] = Selectivity index, ratio of CCID50 for human PBMC to IC50 for HIV-1 HTLV-3B; type: functional
[3] = system: Human immunodeficiency virus 1; assay: Antiviral activity against HIV-1 HTLV-3B infected in human PBMC cells assessed as inhibition of viral production by p24 antigen production/ELISA; type: functional, organism-based; conditions: Human immunodeficiency virus 1, HTLV-3B
[4] = Half life in rat; type: ADME, organism-based; conditions: in vivo
[5] = system: Human immunodeficiency virus 1; assay: Antiviral activity against wild type HIV-1 isolate infected in human PBMC cells assessed as inhibition of viral production by p24 antigen production/ELISA; type: functional, organism-based; conditions: Human immunodeficiency virus 1, PBMC
[6] = system: Human immunodeficiency virus 1; assay: Fold resistance, ratio of IC50 for NRTI-resistant HIV-1 D67N, T69D, K70R, A98G, V118I, M184V, T215F and K219Q mutant to wild type HIV-1 isolate infected in human PBMC cells; type: functional

SMILES	CC50 [1] [µM]	Selectivity Index [2]	IC50 [3] [µM]	half-life [4] [h]	IC50 [5] [µM]	Ratio IC50 [6]
CCCCCCOC(=O)OC[C@@H]1CC[C@H](n2cnc3c(=O)nc[nH]c32)O1	220	5.2	40	–	–	–
O=c1[nH]cnc2c1ncn2[C@H]1CC[C@@H](CO)O1 [DIDANOSINE]	100	2.3	40	1	3.42	900
CCCCCOC(=O)OC[C@@H]1CC[C@H](n2cnc3c(=O)nc[nH]c32)O1	7000	200	30	–	6.49	600
CCCCCCCOC(=O)OC[C@@H]1CC[C@H](n2cnc3c(=O)nc[nH]c32)O1	520	1.7	300	–	–	–
Cc1cn([C@H]2C[C@H](N=[N+]=[N-])[C@@H](CO)O2)c(=O)[nH]c1=O [ZIDOVUDINE]	–	–	–	–	0.216	4000
CCOC(=O)OC[C@@H]1CC[C@H](n2cnc3c(=O)nc[nH]c32)O1	570	1.2	490	–	–	–
CCCCOC(=O)OC[C@@H]1CC[C@H](n2cnc3c(=O)nc[nH]c32)O1	290	2.9	100	–	–	–

Source: ChEMBL document CHEMBL3132835, “Biological evaluation and molecular modelling of didanosine derivatives” (Medchemcomm, 2014)
